Measured values from EPA's CvTdb concentration-time database.

Legend:
[1] = system: Rat; test: concentration in kidney after dosing; conditions: 6 h; dosed: Fluorotelomer alcohol 8+2; 24 mg/kg; oral; Male; Harlan Sprague Dawley
[2] = system: Rat; test: concentration in plasma after dosing; conditions: dosed: Fluorotelomer alcohol 8+2, 12 mg/kg, oral, Male, Harlan Sprague Dawley
[3] = system: Rat; test: concentration in liver after dosing; conditions: 6 h; dosed: Fluorotelomer alcohol 8+2; 24 mg/kg; oral; Male; Harlan Sprague Dawley
[4] = system: Rat; test: concentration in brain after dosing; conditions: 12 h; dosed: Fluorotelomer alcohol 8+2; 24 mg/kg; oral; Male; Harlan Sprague Dawley
[5] = system: Rat; test: concentration in plasma after dosing; conditions: 12 h; dosed: Primidone; 30 mg/kg; oral; Male; F344
[6] = system: Rat; test: concentration in plasma after dosing; conditions: 6 h; dosed: Primidone; 130 mg/kg; oral; Female; F344
[7] = system: Rat; test: concentration in plasma after dosing; conditions: 3 h; dosed: Primidone; 80 mg/kg; oral; Female; F344
[8] = system: Rat; test: concentration in plasma after dosing; conditions: 9 h; dosed: Primidone; 80 mg/kg; oral; Male; F344
[9] = system: Rat; test: concentration in liver after dosing; conditions: 3360 h; dosed: Perfluorodecanoic acid; 10 mg/kg; oral; Female; Harlan Sprague Dawley
[10] = system: Rat; test: concentration in kidney after dosing; conditions: 864 h; dosed: Perfluorodecanoic acid; 10 mg/kg; oral; Female; Harlan Sprague Dawley
[11] = system: Rat; test: concentration in liver after dosing; conditions: 24 h; dosed: Perfluorodecanoic acid; 10 mg/kg; oral; Male; Harlan Sprague Dawley
[12] = system: Rat; test: concentration in kidney after dosing; conditions: 1848 h; dosed: Perfluorodecanoic acid; 10 mg/kg; oral; Female; Harlan Sprague Dawley
[13] = system: Rat; test: concentration in liver after dosing; conditions: 24 h; dosed: Perfluorodecanoic acid; 10 mg/kg; oral; Female; Harlan Sprague Dawley
[14] = system: Rat; test: concentration in brain after dosing; conditions: 24 h; dosed: Perfluorodecanoic acid; 10 mg/kg; oral; Male; Harlan Sprague Dawley
[15] = system: Rat; test: concentration in plasma after dosing; conditions: dosed: Perfluorodecanoic acid, 2 mg/kg, oral, Male, Harlan Sprague Dawley
[16] = system: Rat; test: concentration in heart after dosing; conditions: 1 h; dosed: Bis 2-Chloroethoxy Methane; 20 mg/kg; iv; Female; F344
[17] = system: Rat; test: concentration in heart after dosing; conditions: 40 min; dosed: Bis 2-Chloroethoxy Methane; 20 mg/kg; iv; Male; F344
[18] = system: Rat; test: concentration in plasma after dosing; conditions: 2 h; dosed: Bis 2-Chloroethoxy Methane; 40 mg/kg; iv; Male; Harlan Sprague Dawley
[19] = system: Rat; test: concentration in plasma after dosing; conditions: 1 h; dosed: Bis 2-Chloroethoxy Methane; 20 mg/kg; iv; Male; F344
[20] = system: Rat; test: concentration in liver after dosing; conditions: 40 min; dosed: Bis 2-Chloroethoxy Methane; 20 mg/kg; iv; Male; F344
[21] = system: Rat; test: concentration in heart after dosing; conditions: 10 min; dosed: Bis 2-Chloroethoxy Methane; 20 mg/kg; iv; Male; F344
[22] = system: Rat; test: concentration in heart after dosing; conditions: 4 h; dosed: Bis 2-Chloroethoxy Methane; 20 mg/kg; iv; Female; F344
[23] = system: Rat; test: concentration in plasma after dosing; conditions: 10 min; dosed: Bis 2-Chloroethoxy Methane; 20 mg/kg; iv; Male; F344
[24] = system: Rat; test: concentration in plasma after dosing; conditions: 2 min; dosed: dichloroacetic acid; 10 mg/kg; iv; Male; F344
[25] = system: Rat; test: concentration in plasma after dosing; conditions: dosed: dichloroacetic acid, 100 mg/kg, oral, Male, F344
[26] = system: Rat; test: concentration in plasma after dosing; conditions: 20 min; dosed: dichloroacetic acid; 10 mg/kg; oral; Male; Harlan Sprague Dawley
[27] = system: Rat; test: concentration in plasma after dosing; conditions: 1 h; dosed: Wyeth-14643; 2.0 mg/kg; iv; Male; Sprague-Dawley
[28] = system: Rat; test: concentration in plasma after dosing; conditions: 1 h; dosed: Wyeth-14643; 1.0 mg/kg; oral; Male; Sprague-Dawley
[29] = system: Rat; test: concentration in plasma after dosing; conditions: dosed: Wyeth-14643, 2.0 mg/kg, iv, Male, Sprague-Dawley
[30] = system: Rat; test: concentration in liver after dosing; conditions: 3 h; dosed: Thiodiglycolic Acid; 20 mg/kg; iv; Female; Harlan Sprague Dawley
[31] = system: Rat; test: concentration in thymus after dosing; conditions: 8 h; dosed: Thiodiglycolic Acid; 20 mg/kg; iv; Female; Harlan Sprague Dawley
[32] = system: Rat; test: concentration in plasma after dosing; conditions: 1 h; dosed: Thiodiglycolic Acid; 20 mg/kg; iv; Male; Harlan Sprague Dawley
[33] = system: Rat; test: concentration in heart after dosing; conditions: 20 min; dosed: Thiodiglycolic Acid; 20 mg/kg; iv; Female; Harlan Sprague Dawley
[34] = system: Rat; test: concentration in liver after dosing; conditions: 3 h; dosed: Thiodiglycolic Acid; 20 mg/kg; iv; Male; Harlan Sprague Dawley
[35] = system: Rat; test: concentration in thymus after dosing; conditions: 40 min; dosed: Thiodiglycolic Acid; 20 mg/kg; iv; Male; Harlan Sprague Dawley
[36] = system: Rat; test: concentration in thymus after dosing; conditions: 4 h; dosed: Thiodiglycolic Acid; 20 mg/kg; iv; Female; Harlan Sprague Dawley
[37] = system: Rat; test: concentration in plasma after dosing; conditions: 40 min; dosed: Thiodiglycolic Acid; 20 mg/kg; iv; Male; Harlan Sprague Dawley
[38] = system: Rat; test: concentration in plasma after dosing; conditions: 20 h; dosed: Di-n-butyl phthalate; 200 mg/kg; oral; Male; Sprague-Dawley
[39] = system: Rat; test: concentration in plasma after dosing; conditions: 40 min; dosed: Di-n-butyl phthalate; 20 mg/kg; iv; Male; Sprague-Dawley
[40] = system: Rat; test: concentration in plasma after dosing; conditions: 0.5 h; dosed: Di-n-butyl phthalate; 100 mg/kg; oral; Male; Sprague-Dawley

OCCC(F)(F)C(F)(F)C(F)(F)C(F)(F)C(F)(F)C(F)(F)C(F)(F)C(F)(F)F [Fluorotelomer alcohol 8+2]
concentration in kidney [1]: 366 ng/g
concentration in plasma ([2]; 1 h): 329 ng/mL
concentration in plasma ([2]; 24 h): 0.982 ng/mL
concentration in liver [3]: 1220 ng/g
concentration in brain [4]: 151 ng/g

CCC1(c2ccccc2)C(=O)NC(=O)NC1=O [Phenobarbital]
concentration in plasma [5]: 2660 ng/mL
concentration in plasma [6]: 2210 ng/mL
concentration in plasma [7]: 1000 ng/mL
concentration in plasma [8]: 6800 ng/mL

O=C(O)C(F)(F)C(F)(F)C(F)(F)C(F)(F)C(F)(F)C(F)(F)C(F)(F)C(F)(F)C(F)(F)F [Perfluorodecanoic acid]
concentration in liver [9]: 6380 ng/g
concentration in kidney [10]: 16700 ng/g
concentration in liver [11]: 105000 ng/g
concentration in kidney [12]: 10100 ng/g
concentration in liver [13]: 138000 ng/g
concentration in brain [14]: 2840 ng/g
concentration in plasma ([15]; 12 h): 8900 ng/mL
concentration in plasma ([15]; 1200 h): 1160 ng/mL

ClCCOCOCCCl [Bis 2-Chloroethoxy Methane]
concentration in heart [16]: 1380 ng/g
concentration in heart [17]: 6920 ng/g
concentration in plasma [18]: 1290 ng/mL
concentration in plasma [19]: 1320 ng/mL
concentration in liver [20]: 3320 ng/g
concentration in heart [21]: 13200 ng/g
concentration in heart [22]: 46.5 ng/g
concentration in plasma [23]: 11000 ng/mL

O=C(O)C(Cl)Cl [dichloroacetic acid]
concentration in plasma [24]: 30400 ng/mL
concentration in plasma ([25]; 5 min): 20900 ng/mL
concentration in plasma ([25]; 2 h): 57500 ng/mL
concentration in plasma [26]: 680 ng/mL

Cc1cccc(Nc2cc(Cl)nc(SCC(=O)O)n2)c1C
concentration in plasma [27]: 2380 ng/mL
concentration in plasma [28]: 755 ng/mL
concentration in plasma ([29]; 0.5 h): 5100 ng/mL
concentration in plasma ([29]; 3 h): 342 ng/mL

O=C(O)CSCC(=O)O [Thiodiglycolic Acid]
concentration in liver [30]: 94200 ng/g
concentration in thymus [31]: 395 ng/g
concentration in plasma [32]: 1580 ng/mL
concentration in heart [33]: 5330 ng/g
concentration in liver [34]: 59900 ng/g
concentration in thymus [35]: 3430 ng/g
concentration in thymus [36]: 657 ng/g
concentration in plasma [37]: 3090 ng/mL

CCCCOC(=O)c1ccccc1C(=O)O [Mono-n-butyl phthalate]
concentration in plasma [38]: 1290 ng/mL
concentration in plasma [39]: 8270 ng/mL
concentration in plasma [40]: 29700 ng/mL
